# Measured values reported in publication PMC5216056 (Nature Communications, 2017).
# Like-named read-outs stand apart in the source and are kept apart here.
# Assays:
# [1] = target: T1, hCB2R (Homo sapiens, UniProt P34972); experiment: cell-based; assay type: cell-based; parameters: expressed in transfected cells; host or cells: Flp-In-293 (Invitrogen #R750-07), pcDNA5/FRT; conditions: for Emax: read-out: Emax ± SEM cAMP hCB2R
# [2] = target: mCB2R (Mus musculus, UniProt P47936); experiment: biochemical; assay type: biochemical; parameters: from tissue; host or cells: spleen of male C57BL/6J mice; conditions: for CB2R Selectivity cAMP (mouse): 10^(pEC50 CB2R-pEC50 CB1R); for Emax: read-out: Emax cAMP mCB2R
# [3] = target: T2, 5-HT2B (h) (Homo sapiens, UniProt P41595); experiment: CEREP panel; assay type: binding; conditions: for inhibition at 10 µM: read-out: % inhibition 5-HT2B (h)
# T2 construct: CEREP (contract assay)
# [4] = target: T1, hCB2R; experiment: cell-based; assay type: cell-based; conditions: for Emax: read-out: Emax ± SEM β-AR recruitment hCB2R
# [5] = target: T3, human NAPE-PLD (Homo sapiens, UniProt Q6IQ20); experiment: NAPE-PLD inhibition; assay type: biochemical; conditions: for inhibition at 10 µM: read-out: NAPE-PLD % inhibition at 10 µM ± SD
# T3 construct: Full length human cDNA NAPE-PLD was obtained from Natsuo Ueda; expressed in transfected cells; host or cells: HEK293T (transient), membrane fraction
# Experimental: Full length human cDNA NAPE-PLD was obtained from Natsuo Ueda[58] and cloned into mammalian expression vector pcDNA3.1, containing a C-terminal Flag-tag and genes for ampicillin and neomycin resistance. All plasmids were grown in XL-10 Z-competent cells and prepped (Maxi Prep, Qiagen). Sequence analysis for the confirmation of the sequences was performed at the Leiden Genome Technology Centre.
# HEK293T cells (source: Dutch Cancer Institute) were cultured at 37 °C and 7% CO2 in DMEM with glutamax, penicillin (100 μg ml^−1), streptomycin (100 μg ml^−1) and 10% New Born Calf Serum iron supplemented (Hyclone SH30072.03). Cells were passaged twice a week to appropriate confluence. Twenty-four hours before transfection 10^7 cells were seeded on a 15 cm dish. Two hours before transfection, the medium was refreshed. Transfection is performed with PEI in a ratio of 3:1 with human NAPE-PLD or Mock pcDNA3.1Neo, 20 μg per dish. Medium is refreshed after 24 h and cells are harvested after 72 h. Cell suspensions are centrifuged at 1,000g for 10 min, supernatant removed and pellets frozen at −80 °C until further use.
# Cell pellets are re-suspended in lysis buffer 1: 20 mM Hepes, 2 mM DTT, 0.25 M sucrose, 1 mM MgCl2, 2.5 U ml^−1 benzonase and incubated 30 min on ice. The cytosolic fraction (supernatant) is separated from the membranes by ultra-centrifugation (32,000 rpm for 30 min 100,000g). The pellet is resuspended in buffer 2: 20 mM Hepes, 2 mM DTT (membrane fraction). All samples are stored at −80 °C. Enzyme concentrations are determined using a Bradford assay.
# The membrane protein fraction from transient overexpression of NAPE-PLD in HEK293T cells was diluted to 0.4 mg ml^−1 in assay buffer: 50 mM Tris-HCl (pH 7.5), 0.02% Triton X-100, 150 mM NaCl (ref. [60]). […] Relevant concentrations of compounds are prepared in DMSO. The assay is performed in a dark Greiner 96-well plate, end volume 100 μl. The compound or DMSO is incubated with membrane protein lysate (final concentration 0.04 mg ml^−1) for 30 min at 37 °C. A sample without membrane protein lysate is incorporated for background subtraction. Then, substrate is added (final concentration 1 μM) and the measurement is started immediately on a TECAN infinite M1000 pro at 37 °C (excitation 485 nm, emission 535 nm), scanning every 2 min for 1 h.
# [6] = target: T1, hCB2R; experiment: biochemical; assay type: biochemical; parameters: expressed in transfected cells; host or cells: Flp-In-293 (Invitrogen #R750-07), pcDNA5/FRT; conditions: for Emax: read-out: Emax ± SEM GTPγS hCB2R
# [7] = antagonists in presence of EC80 of CP55940
# [8] = normalized to 10 µM CP55940, negative = inhibition of EC80 of CP55940
# [9] = normalized to 10 µM CP55940, negative = inverse agonism
# [10] = mouse spleen, read-out: pEC50 ± SEM cAMP mCB2R (converted)
# T3 sequence (Q6IQ20 whole entry): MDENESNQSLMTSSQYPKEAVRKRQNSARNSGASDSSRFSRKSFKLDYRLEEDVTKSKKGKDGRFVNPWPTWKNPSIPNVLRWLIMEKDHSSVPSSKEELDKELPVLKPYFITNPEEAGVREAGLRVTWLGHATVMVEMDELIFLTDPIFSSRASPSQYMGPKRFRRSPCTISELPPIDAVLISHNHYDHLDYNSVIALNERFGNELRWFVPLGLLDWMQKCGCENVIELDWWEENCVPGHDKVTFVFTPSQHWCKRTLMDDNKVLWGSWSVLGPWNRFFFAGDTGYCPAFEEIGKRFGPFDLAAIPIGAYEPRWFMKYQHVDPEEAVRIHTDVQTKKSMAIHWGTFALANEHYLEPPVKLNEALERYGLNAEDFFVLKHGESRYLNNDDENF
# Chain of mCB2R (P47936 whole entry): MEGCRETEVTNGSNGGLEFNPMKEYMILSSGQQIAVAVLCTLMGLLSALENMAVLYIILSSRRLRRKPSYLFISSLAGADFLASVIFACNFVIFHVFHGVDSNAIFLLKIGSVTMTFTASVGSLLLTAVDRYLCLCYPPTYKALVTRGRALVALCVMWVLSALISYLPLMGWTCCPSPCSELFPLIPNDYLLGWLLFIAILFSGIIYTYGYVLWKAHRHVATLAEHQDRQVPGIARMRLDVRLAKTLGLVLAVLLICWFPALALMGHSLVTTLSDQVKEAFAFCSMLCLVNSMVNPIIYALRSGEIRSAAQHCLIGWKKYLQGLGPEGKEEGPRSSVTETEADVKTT
# T1 sequence (P34972 whole entry): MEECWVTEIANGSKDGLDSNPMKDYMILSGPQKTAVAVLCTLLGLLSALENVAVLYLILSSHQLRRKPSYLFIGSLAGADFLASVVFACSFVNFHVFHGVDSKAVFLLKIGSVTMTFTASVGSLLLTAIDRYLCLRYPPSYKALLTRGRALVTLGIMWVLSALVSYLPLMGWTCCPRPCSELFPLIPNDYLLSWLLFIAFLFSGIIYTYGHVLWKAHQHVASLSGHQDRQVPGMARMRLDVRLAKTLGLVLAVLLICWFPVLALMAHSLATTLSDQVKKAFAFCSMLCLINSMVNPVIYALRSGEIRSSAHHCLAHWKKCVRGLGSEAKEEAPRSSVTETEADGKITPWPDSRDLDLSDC
# T2 sequence (P41595 whole entry): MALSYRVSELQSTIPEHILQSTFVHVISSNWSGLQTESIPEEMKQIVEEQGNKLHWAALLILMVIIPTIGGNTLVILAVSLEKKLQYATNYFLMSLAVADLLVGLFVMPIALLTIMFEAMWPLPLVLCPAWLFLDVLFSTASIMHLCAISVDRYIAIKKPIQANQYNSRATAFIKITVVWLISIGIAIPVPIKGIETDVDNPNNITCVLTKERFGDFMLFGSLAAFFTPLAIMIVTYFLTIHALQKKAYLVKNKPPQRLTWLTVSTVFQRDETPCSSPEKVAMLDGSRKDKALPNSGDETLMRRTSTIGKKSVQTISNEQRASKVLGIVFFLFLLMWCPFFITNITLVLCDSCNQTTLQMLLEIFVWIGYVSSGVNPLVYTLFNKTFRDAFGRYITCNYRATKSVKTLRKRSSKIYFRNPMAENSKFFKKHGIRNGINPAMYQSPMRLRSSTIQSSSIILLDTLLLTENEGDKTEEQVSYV
Compound,pEC50 ± SEM cAMP mCB2R ([2]; mouse spleen),Emax cAMP mCB2R ([2]; normalized to 10 µM CP55940) [%],% inhibition 5-HT2B (h) ([3]; 10 µM) [%],NAPE-PLD % inhibition at 10 µM ± SD [5] [%],pEC50 ± SEM GTPγS hCB2R [6],Emax ± SEM cAMP hCB2R [1],pEC50 ± SEM cAMP hCB2R [1],Emax cAMP mCB2R [2],Emax ± SEM β-AR recruitment hCB2R [4],pEC50 ± SEM β-AR recruitment hCB2R [4],Emax ± SEM GTPγS hCB2R [6],inhibition at 10 µM [5] [%],other results
CCCCCCC(C)(C)c1cc(OC)c(C2=C[C@H]3CC[C@]2(CO)C3(C)C)c(OC)c1 [HU910],8.98 ± 0.38,67,87,8 ± 13,7.27 ± 0.12,–,–,–,–,–,–,–,"pEC50 ± SEM cAMP hCB2R [1, 7]: 8.41 ± 0.13; Emax ± SEM cAMP hCB2R ([1]; normalized to 10 µM CP55940): 98 ± 1%; pEC50 ± SEM β-AR recruitment hCB2R [4, 7]: 7.75 ± 0.03; Emax ± SEM β-AR recruitment hCB2R [4, 8]: 48 ± 6%; Emax ± SEM GTPγS hCB2R [6, 9]: 61 ± 13%"
CCCC(C)(C)c1ccc2c(c1)OC(C)(C)[C@@H]1CC=C(C)C[C@@H]21 [JWH133],7.75 ± 0.33,–,3,3 ± 4,6.96 ± 0.35,98 ± 1,8.38 ± 0.09,95,62 ± 11,7.81 ± 0.22,61 ± 15,–,CB2R Selectivity β-AR recruitment [4]: 275 fold; hCB2R Selectivity GTPγS [6]: 0.4
CN1CCCCC1Cn1cc(C(=O)c2cc([N+](=O)[O-])ccc2I)c2ccccc21 (racemic) [(rac)-AM1241],7.03 ± 0.26,–,–,29 ± 11,6.89 ± 0.66,67 ± 3,8.49± 0.08,-6,14 ± 2,< 5,56 ± 9,–,hCB2R Selectivity GTPγS [6]: 0.03
Cc1c(C(=O)c2cccc3ccccc23)c2cccc3c2n1[C@H](CN1CCOCC1)CO3 [WIN55212-2],8.37 ± 0.23,97,70,8 ± 6,–,–,–,–,–,–,–,–,–
SR144528,–,-100,22,8 ± 10,–,–,–,–,–,–,–,–,"Emax ± SEM cAMP hCB2R ([1]; normalized to 10 µM CP55940): -151 ± 10%; Emax ± SEM β-AR recruitment hCB2R [4, 8]: -111 ± 3%; Emax ± SEM GTPγS hCB2R [6, 9]: -29 ± 2%"
Cc1ccc2c(c1)Cc1c(C(=O)NN3CCCCC3)nn(-c3ccc(Cl)cc3Cl)c1-2 [Gp-1a],7.25 ± 0.32,-25,29,3 ± 5,7.09 ± 0.07,–,–,–,–,–,–,–,"pEC50 ± SEM cAMP hCB2R [1, 7]: 7.52 ± 0.14; Emax ± SEM cAMP hCB2R ([1]; normalized to 10 µM CP55940): -85 ± 10%; CB2R Selectivity cAMP (mouse) [2]: 25 fold; pEC50 ± SEM β-AR recruitment hCB2R [4, 7]: 5.86 ± 0.16; Emax ± SEM β-AR recruitment hCB2R [4, 8]: -147 ± 11%; Emax ± SEM GTPγS hCB2R [6, 9]: -14 ± 5%"
CCCn1c(C)c(C(=O)c2cccc3ccccc23)c2ccccc21 [JWH015],7.64 ± 0.24,93,94,-4 ± 12,–,–,–,–,–,–,–,–,–
"CCCCC/C=C\C/C=C\C/C=C\C/C=C\CCCC(=O)OC(CO)CO [2-AG, 2-arachidonoyl glycerol]",–,–,–,–,–,–,–,–,–,–,–,-1 ± 12,"Emax [1]: 94 ± 1%; EC50 [2, 10]: 70.8 nM; Emax [2]: 53%; EC50 [4]: 2000 nM; Emax [4]: 80 ± 21%; Emax [6]: 57 ± 11%; EC50 ([6]; read-out: pEC50 ± SEM GTPγS hCB2R (converted)): 646 nM"
CN1CCCC[C@@H]1Cn1cc(C(=O)c2cc([N+](=O)[O-])ccc2I)c2ccccc21 [(R)-AM1241],6.17 ± 0.23,–,–,21 ± 5,7.40 ± 0.50,65 ± 2,8.76 ± 0.18,-22,29 ± 4,7.52 ± 0.43,33 ± 2,–,CB2R Selectivity cAMP (human) ([1]; 10^(pEC50 CB2R-pEC50 CB1R)): 391 fold; CB2R Selectivity cAMP (mouse) [2]: 12 fold; CB2R Selectivity β-AR recruitment ([4]; 10^(pEC50 CB2R-pEC50 CB1R)): 86 fold; hCB2R Selectivity GTPγS ([6]; 10^(pEC50 CB2R-pEC50 CB1R)): 4 fold
CCCCCCC(C)(C)c1cc(OC)c([C@@H]2C=C(CO)[C@@H]3C[C@H]2C3(C)C)c(OC)c1 [HU308],–,–,–,–,–,–,–,–,–,–,–,2 ± 7,Emax [1]: 98 ± 1%; EC50 [2]: 3.72 nM; Emax [2]: 56%; inhibition at 10 µM [3]: 28%; Emax [4]: 57 ± 10%; Emax [6]: 97 ± 12%
Cc1c(C(=O)NN2CCCCC2)nn(-c2ccc(Cl)cc2Cl)c1-c1ccc(I)cc1 [AM251],–,–,28,10 ± 12,–,-175 ± 19,–,–,-104 ± 8,–,-29 ± 2,–,–
CCCCCCC(C)(C)c1ccc([C@@H]2C[C@H](O)CC[C@H]2CCCO)c(O)c1 [CP55940],–,–,–,–,–,–,–,–,–,–,–,10 ± 8,"EC50 [2, 10]: 0.0676 nM; Emax [2]: 100%; inhibition at 10 µM ([3]; 10 µM): 96%; Emax [4]: 80 ± 5%; Emax [6]: 95 ± 4%"
COc1ccc(C(=O)c2c(C)n(CCN3CCOCC3)c3cc(I)ccc23)cc1 [AM630],7.93 ± 0.3,–,65,-4 ± 11,6.75 ± 0.20,-152 ± 13,7.56 ± 0.05,-65,-124 ± 6,6.15 ± 0.08,-22 ± 2,–,–
Cc1c(C(=O)NN2CCCCC2)nn(-c2ccc(Cl)cc2Cl)c1-c1ccc(Cl)cc1 [SR141716A],–,–,–,–,–,–,–,–,–,–,–,0,inhibition at 10 µM ([3]; 10 µM): 16%
"CCCCC/C=C\C/C=C\C/C=C\C/C=C\CCCC(=O)NCCO [Anandamide, N-arachidonoylethanolamine]",–,–,–,–,–,–,–,–,–,–,–,17 ± 9,Emax [1]: 87 ± 7%; EC50 [2]: 151 nM; Emax [2]: 48%; Emax [4]: 38 ± 3%; Emax [6]: 31 ± 4%
CN1CCCC[C@H]1Cn1cc(C(=O)c2cc([N+](=O)[O-])ccc2I)c2ccccc21 [(S)-AM1241],7.6 ± 0.3,–,93,33 ± 7,–,78 ± 1,7.40 ± 0.11,35,29 ± 8,6.54 ± 0.44,47 ± 5,–,CB2R Selectivity cAMP (mouse) [2]: 148 fold
